Data set [1] concerns spontan hypertensiven Ratten (SHR). Kind of data set: Hypotensive effect in spontaneously hypertensive rats, single intragastric administration. It counts as in vivo. The settings on record: for Der hypotensive Effekt, % an SHR nach 48 Stunden: after 48 hours; for Dauer der hypotensiven Wirkung: single intragastric dose 10 mg/kg (similar dose for comparators), time over which the effect is detected or after which it ends.

Data set [2] has as its system spontan hypertensiven Ratten. Kind of data set: Hypotensive effect in spontaneously hypertensive rats, repeated intragastric administration for 10 days. The settings on record: SHR. It counts as in vivo.
Another data set in a line: in vivo. The settings on record: mouse, ip, white outbred mice, intraperitoneal administration.
Data set [3] can be described thus: Solubility and stability of the substance. The class given is physicochemical. How it is done: Die genannte Verbindung stellt eine kristalline Substanz vom 128 bis I30°C Schm.p. dar. […] Diese Verbindung ist sowohl in kristallinem Zustand als auch in Porm von Lösungen in organischen Lösungsmitteln stabil.
The mark [4] stands for this setting: dose 10 mg/kg, single intragastric administration, after 6 hours.
Setting [5] is: dose 10 mg/kg, single intragastric administration.

From EP0289604A1, “2-METHYLMERCAPTO-3-CYANO-4-(O-DIFLUOROMETHOXYPHENYL)-6-PHENYL-1,4-DIHYDROPYRIDINE” (INSTITUT ORGANICHESKOGO SINTEZA AKADEMII NAUK LATVIISKOI SSR, priority 1986, dated 1988) come the findings set out here.

Usually LD50 stands for the dose at which mortality reaches 50%. A lower LD50 goes with a more toxic substance.

Take `CSC1=C(C#N)C(c2ccccc2OC(F)F)C=C(c2ccccc2)N1` (stereo not shown) [Die erfindungsgemässe Verbindung, 2-Methylmerkapto-3-zyano-4-(o-difluormethoxyphenyl)-6-phenyl-I,4-dihydropyridin]: the “Der hypotensive Effekt, % an SHR nach 6 Stunden” value in data set [1] (setting [4]) came to 24%. Besides, in data set [1] (setting [5]), the “Der hypotensive Effekt, % an SHR nach 48 Stunden” value came to 6%. The “Dauer der hypotensiven Wirkung” value in data set [1] is listed as at most 48 Stunden. In addition, in data set [1] (single intragastric dose 10 mg/kg, after 6 hours), the “systolische Blutdruck herabgesetzt” value was found to be 21%. In data set [1] (single intragastric dose 10 mg/kg, onset of effect), the “Effekt der Senkung des systolischen arteriellen Blutdrucks, Zeit nach der Einführung” value came out at 30 Minuten. Further, the “systolische Blutdruck herabgesetzt zum 10. Einführungstag” value in data set [2] (10 mg/kg intragastric once daily for 10 days) amounted to 26%. Also, in data set [2] (after stopping 10 mg/kg intragastric once daily for 10 days), the “arterielle Blutdruck erreichte das Ausgangsniveau nach dem Aufhören der Einführung” value was at most 3 Tagen. The compound further had an LD50 in “in vivo” of over 5000 mg/kg. Moreover, the Stabilität entry in data set [3] (in crystalline state and as solutions in organic solvents) was “stabil”. Moreover, in data set [3] (organic solvents), the “Löslichkeit in Methyl-, Äthylalkohol, Azeton, Chloroform” value is on record as “gut löslich”. Further, the “Löslichkeit in Wasser” value in data set [3] (water) is reported as “praktisch unlöslich”.

As for `COC(=O)C1=C(C)NC(C)=C(C(=O)OC)C1c1ccccc1[N+](=O)[O-]` [Nifedipine, 2,6-Dimethyl-3,5-dimethoxykarbonyl-4-(o-nithophenyl)-I,4-di-hydropyridin, reference compound], the “Der hypotensive Effekt, % an SHR nach I Stunden” value in data set [1] (dose 10 mg/kg, single intragastric administration, after 1 hour) was 34%. Moreover, the “Der hypotensive Effekt, % an SHR nach 6 Stunden” value in data set [1] (setting [4]) is recorded as 23%. In addition, the “Der hypotensive Effekt, % an SHR nach 24 Stunden” value in data set [1] (dose 10 mg/kg, single intragastric administration, after 24 hours) came to 0%. The “Der hypotensive Effekt, % an SHR nach 48 Stunden” value in data set [1] (setting [5]) is reported as 0%. Besides, the “Dauer der hypotensiven Wirkung” value in data set [1] is 6 Stunden.
